The structures appear in SMILES notation.

This is an account of results in US9687456B2, “Nutritional compositions for modulating inflammation including exogenous vitamin K2” (NESTEC S.A., priority 2009, dated 2017).

Common to all, as to type: in vivo, Sprague-Dawley rats
One assay concerns NFκB p65 (Ser536). Nature of the assay: LPS-treated rats: gastrocnemius muscle immunoblot, phosphorylated p65. Particulars: oral 25 or 50 microgram daily over 7 days, LPS IP, compared to LPS treatment. On the procedure: (§1) Male Sprague-Dawley rats (175 g) are kept on a 12-h light:dark cycle with food (Harlan-Teklad Rodent Chow, Madison, Wis.) and water provided freely. Animals are administered daily doses of vitamin K2 (MK-7) or saline (control) via oral gavage over 7 days. Stock solutions of vitamin K2 are prepared containing 3.5 g/L HCO-60 and 1 g/L of […] in buffer A (0.15 M NaCl, 0.05 M Tris-HCl, pH 7.5). The K2 is dissolved by sonication during five pulses of 5 set with an amplitude of 6 pm. Solutions thus obtained are clear, homogeneous, and stable. […]
(§2) Analysis of mTOR Signaling to eIFs—Gastrocnemius muscles are weighed and homogenized in 7 volumes of buffer containing 20 mM HEPES (pH 7.4), 100 mM potassium chloride, 0.2 mM EDTA, 2 mM EGTA, 50 mM sodium fluoride, 50 mM glycerophosphate, 0.1 mM phenylmethylsulfonyl fluoride, 1 mM benzamidine, 1 mM dithiothreitol (DTT), and 0.5 mM sodium vanadate. […] Samples are analyzed for the phosphorylation status of 4E-BP1 (Thr37) and ribosomal protein S6 (Ser 235/236), the anti-phosphospecific antibodies were obtained from Cell Signaling Technology, Beverly, Mass. Additionally, samples are analyzed for phosphorylated IKKα/β (Ser176/180; Cell Signaling Technology) and phosphorylated p65 (Ser536; Cell Signaling Technology).

Assay [1] has as its system mixed muscle protein synthesis. The assay is described as follows: LPS-treated rats: fractional rate of mixed muscle protein synthesis (Ks), radioactive phenylalanine incorporation. Particulars: oral 25 or 50 microgram daily over 7 days, LPS IP, conditions of inflammatory sepsis, compared to LPS treatment. Here is the method: as §1, with “stable. Shortly before vitamin K administration the stock solutions are diluted five times with buffer A, leading to a final HCO-60 concentration of 0.7 g/L. Further dilutions (as required) are made with 0.7 g/L HCO-60 in buffer A. Each dilution step is followed by sonication as described above. In all cases vitamin K2 is administered to the rats in 0.5 mL samples, with either 25 or 50 microgram oral doses.” for “stable.”
Measurement of Protein Synthesis—The fractional rate of synthesis (Ks) is estimated from the rate of incorporation of radioactive phenylalanine into total mixed muscle protein using the specific radioactivity of serum phenylalanine as representative of the precursor pool. […]

Assay [2] relates to ribosomal protein S6 (Ser 235/236). Nature of the assay: LPS-treated rats: mTOR signaling to eIFs, ribosomal protein S6 phosphorylation in gastrocnemius muscle. Particulars: oral 25 or 50 microgram daily over 7 days, LPS IP, compared to LPS treatment. Here is the method: as §1, §2
For another assay, the system named is plasma TNF-a. The assay is described as follows: LPS-induced inflammation in rats: plasma TNF-a. The following applies: oral gavage 25 or 50 microgram daily over 7 days, LPS 0.5 mg/kg IP on Day 7, sacrifice four hours later, compared to LPS treated animals. Here is the method: Male Sprague-Dawley rats (175 g) are kept on a 12-h light:dark cycle with food (Harlan-Teklad Rodent Chow, Madison, Wis.) and water provided freely. Animals are administered daily doses of vitamin K2 (MK-7) or saline (control) via oral gavage over 7 days. Stock solutions of vitamin K2 are prepared containing 3.5 g/L HCO-60 and 1 g/L of […] in buffer A (0.15 M NaCl, 0.05 M Tris-HCl, pH 7.5). The K2 is dissolved by sonication during five pulses of 5 set with an amplitude of 6 pm. Solutions thus obtained are clear, homogeneous, and stable. Shortly before vitamin K administration the stock solutions are diluted five times with buffer A, leading to a final HCO-60 concentration of 0.7 g/L. Further dilutions (as required) are made with 0.7 g/L HCO-60 in buffer A. Each dilution step is followed by sonication as described above. In all cases vitamin K2 is administered to the rats in 0.5 mL samples, with either 25 or 50 microgram oral doses.
On the final day (Day 7), rodents are administered vitamin K2 and 2 hours later were given an IP dose of LPS (Escherichia coli serotype O111:B4, L2630, Sigma) intraperitoneally (0.5 mg/kg of body weight). Four hours later animals are sacrificed.

In another assay the test system is 4E-BP1 (Thr37). Nature of the assay: LPS-treated rats: mTOR signaling to eIFs, 4E-BP1 phosphorylation in gastrocnemius muscle. The following applies: oral 25 or 50 microgram daily over 7 days, LPS IP, compared to LPS treatment. On the procedure: as §1, §2
For the next assay, the system named is IKKα/β (Ser176/180). The assay is described as follows: LPS-treated rats: gastrocnemius muscle immunoblot, phosphorylated IKKα/β. The following applies: oral 25 or 50 microgram daily over 7 days, LPS IP, compared to LPS treatment. On the procedure:
as §1, §2
In general terms: A western blot detects proteins with antibodies after separation by electrophoresis.

With `CC(C)=CCC/C(C)=C/CC/C(C)=C/CC/C(C)=C/CC/C(C)=C/CC/C(C)=C/CC/C(C)=C/CC1=C(C)C(=O)c2ccccc2C1=O` [K2, vitamin K2 (MK-7)], the “NFκB p65 induction” value in the assay with NFκB p65 (Ser536) is reported as “significant blunting”. The “fractional rate of mixed muscle protein synthesis” value in assay [1] was “greater preservation”. Further, the “ribosomal protein S6 phosphorylation” value in assay [2] is recorded as “abrogates the decrease”. In addition, the “rise of plasma TNF-a” value with plasma TNF-a is “significant decrease in the rise”. Further, the “4E-BP1(Thr-37) phosphorylation” value in the assay with 4E-BP1 (Thr37) is given as “abrogates the decrease”. The “phosphorylation for IKKα/β” value in the assay with IKKα/β (Ser176/180) is given as “significant blunting of the drop in phosphorylation”.
